From US12589092B2, “Polycyclic compound acting as kinase inhibitor” (HANGZHOU INNOGATE PHARMA CO., LTD., priority 2020, dated 2026)
Like-named read-outs stand apart in the source and are kept apart here.

What was measured:
[1] = molecular target: CDK4/CycD3 (Homo sapiens, UniProt P11802); test: CDK4 kinase activity inhibition assay (caliper mobility shift); assay type: biochemical; conditions: CDK4/CycD3 10 nM, ATP 221 μM; read-out: CDK4 kinase inhibitory activity (IC50)
Experimental: (§1) 1) CDK2, CDK4 and CDK6 Kinase Activity Inhibition Assay
(§2) In vitro enzymatic activity of the CDK isoforms CDK2/CycA2, CDK4/CycD3 and CDK6/cycD3 were measured using caliper mobility shift assay. Dissolve the compounds in DMSO and dilute them with corresponding kinase buffer (CDK2/CycA2 and CDK6/CycD3 were assayed with buffer conditions of 50 mM HEPES (pH 7.5), 10 mM MgCl2, 0.0015% Brij-35 and 2 mM dithiothreitol; CDK4/CycD3 was assayed with buffer condition of 20 mM HEPES (pH 7.5), 10 mM MgCl2, 0.01% Triton X-100 and 2 mM dithiothreitol). Add 5 μl of compound (10% DMSO) with 5 times the final concentration of the reaction to a 384-well plate. […] Collect conversion data on Caliper EZ Reader II (Caliper Life Sciences). Convert the conversion rate into inhibition rate data (% inhibition rate=(max−conversion rate)/(max−min)*100). […] Draw a curve with the concentration and inhibition rate of the compound as abscissa and ordinate, and use XLFit excel add-in version 4.3.1 software to fit the curve and calculate IC50.

[2] = molecular target: CDK16/CycY (Homo sapiens, UniProt Q00536); test: CDK16 kinase activity inhibition assay (ADP-Glo); assay type: biochemical; conditions: read-out: CDK16 kinase inhibitory activity (IC50)
Chain of CDK16/CycY (Q00536 whole entry): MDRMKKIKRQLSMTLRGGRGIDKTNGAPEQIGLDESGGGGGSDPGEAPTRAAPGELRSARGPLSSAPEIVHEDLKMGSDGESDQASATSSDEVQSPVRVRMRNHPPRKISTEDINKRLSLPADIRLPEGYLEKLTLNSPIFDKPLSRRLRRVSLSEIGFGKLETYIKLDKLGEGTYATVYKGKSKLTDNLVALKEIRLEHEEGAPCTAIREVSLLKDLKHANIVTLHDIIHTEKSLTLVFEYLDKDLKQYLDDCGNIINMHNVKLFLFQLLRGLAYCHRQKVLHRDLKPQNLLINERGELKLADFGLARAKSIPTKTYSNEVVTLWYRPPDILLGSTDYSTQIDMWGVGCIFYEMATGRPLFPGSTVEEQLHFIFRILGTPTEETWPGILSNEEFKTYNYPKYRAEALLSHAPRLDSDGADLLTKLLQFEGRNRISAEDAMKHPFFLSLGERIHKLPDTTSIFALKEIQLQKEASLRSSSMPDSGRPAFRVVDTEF
Chain of CDK16/CycY (Q8ND76 whole entry partner): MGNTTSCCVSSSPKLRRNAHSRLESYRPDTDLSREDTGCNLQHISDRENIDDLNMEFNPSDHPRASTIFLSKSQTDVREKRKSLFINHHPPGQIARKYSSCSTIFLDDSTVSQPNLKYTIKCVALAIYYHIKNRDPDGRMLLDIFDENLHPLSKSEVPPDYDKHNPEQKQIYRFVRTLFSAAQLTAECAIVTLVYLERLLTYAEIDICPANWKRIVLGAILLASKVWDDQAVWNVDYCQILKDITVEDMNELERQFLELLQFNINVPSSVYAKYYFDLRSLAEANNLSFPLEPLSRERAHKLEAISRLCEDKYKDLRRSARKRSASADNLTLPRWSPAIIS
Experimental: (§3) 3) CDK5, CDK9 and CDK16 Kinase Activity Inhibition Assay
(§4) CDK5/p35NCK, CDK9/CycT1 and CDK16/CycY protein kinase activities were determined using the ADP-Glo Kinase Assay. Dilute the positive compound and the test compound (10 mM stock solution) 25-fold with 100% DMSO, make a 4-fold serial dilution in a 96-well dilution plate, and add 1 μL of the compound to 49 μL of kinase reaction buffer (1 mM Tris, 20 mM MgCl2, 0.10% BSA and 0.5 mM DTT) on a microplate shaker for 20 min. Transfer 2 μL of 2× kinase to the 384-well reaction plate, add 1 μL of the test compound to the 384-well reaction plate, centrifuge at 1000 rpm/min for 1 min, and incubate at 25° C. for 10 min. Transfer 1 μL of the 4× substrate mix to the 384-well reaction plate, centrifuge at 1000 rpm/min for 1 min, and incubate at 25° C. for 60 min. Transfer 4 μL of ADP-Glo to the 384-well reaction plate to centrifuge at 1000 rpm/min for 1 min, and incubate at 25° C. for 40 min. Transfer 8 μL of detection solution to the 384-well reaction plate to centrifuge at 1000 rpm/min for 1 min, and incubate at 25° C. for 40 min. The RLU (Relative luminescence unit) signal was read using a Biotek multifunctional plate reader. Signal intensity is used to characterize the degree of kinase activity. Compound inhibition rate data: % inhibition rate=[1−(compound mean RLU−positive control mean RLU)/(negative control mean RLU−positive control mean RLU)]*100. Taking the log value of the concentration as the X axis and the percentage inhibition rate as the Y axis, the log(inhibitor) vs. response-Variable slope of the analysis software GraphPad Prism 5 was used to fit the dose-response curve to obtain the IC50 value of each compound on the enzyme activity.

[3] = molecular target: TRKA (Homo sapiens, UniProt P04629); test: TRKA kinase activity inhibition assay (caliper mobility shift); assay type: biochemical
Chain of TRKA (P04629 33-796): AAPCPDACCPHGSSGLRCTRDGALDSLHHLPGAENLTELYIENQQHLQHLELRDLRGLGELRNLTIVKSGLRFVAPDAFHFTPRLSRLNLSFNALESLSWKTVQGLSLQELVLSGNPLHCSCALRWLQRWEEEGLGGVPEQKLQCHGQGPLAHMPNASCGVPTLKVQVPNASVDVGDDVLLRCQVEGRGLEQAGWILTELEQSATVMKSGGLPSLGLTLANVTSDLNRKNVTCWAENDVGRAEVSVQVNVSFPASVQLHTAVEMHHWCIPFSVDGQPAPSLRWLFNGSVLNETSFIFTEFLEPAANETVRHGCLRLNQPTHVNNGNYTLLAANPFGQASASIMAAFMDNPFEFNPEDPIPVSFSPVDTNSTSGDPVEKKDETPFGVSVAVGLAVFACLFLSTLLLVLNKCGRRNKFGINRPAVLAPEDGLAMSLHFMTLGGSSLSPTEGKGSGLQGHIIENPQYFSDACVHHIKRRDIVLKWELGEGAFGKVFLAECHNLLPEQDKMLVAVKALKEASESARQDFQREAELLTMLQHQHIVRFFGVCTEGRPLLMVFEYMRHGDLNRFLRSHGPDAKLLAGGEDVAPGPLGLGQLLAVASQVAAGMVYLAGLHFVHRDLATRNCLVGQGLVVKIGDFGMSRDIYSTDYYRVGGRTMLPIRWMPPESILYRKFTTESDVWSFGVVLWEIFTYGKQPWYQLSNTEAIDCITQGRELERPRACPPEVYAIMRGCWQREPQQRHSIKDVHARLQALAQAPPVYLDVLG
Experimental: 2) TRKA Kinase Activity Inhibition Assay
TRKA protein kinase activity was measured by caliper mobility shift assay. Compounds were dissolved in DMSO to make up 10 mM stock solutions. Prepare 1× kinase reaction buffer to serially dilute compounds. 250 nL 100× final concentration of the test compounds were transferred to destination plate 3573 by dispenser Echo 550. Prepare a 2.5× final concentration of kinase solution with 1× kinase buffer. Add 10 μL of 2.5× final kinase solution to compound wells and positive control wells; add 10 μL of 1× kinase buffer to negative control wells. Centrifuge at 1000 rpm for 30 s, shake and mix the reaction plate and incubate at room temperature for 10 min. Prepare a mixture of ATP and kinase substrate solution at 5/3× final concentration with 1× kinase buffer. The reaction was initiated by adding 15 μL of the mixed solution. Centrifuge the 384-well plate at 1000 rpm for 30 s, shake and mix well, and incubate at room temperature for the corresponding time. Add 30 μL of stop solution to stop the kinase reaction, centrifuge at 1000 rpm for 30 s, mix by shaking, and read the conversion rate data with Caliper EZ Reader. Convert conversion to inhibition data (% inhibition=(max DMSO well conversion−sample well conversion)/(max DMSO well conversion−min negative control conversion)*100). Wherein max refers to the conversion rate of the DMSO control, and min refers to the conversion rate of the non-enzymatic control. Draw a curve with the concentration and inhibition rate of the compound as abscissa and ordinate, and use XLFit excel add-in version 4.3.1 software to fit the curve and calculate IC50.

[4] = in vivo; conditions: male, SD, rat, po, 3 mg/kg
Experimental: (§5) Instruments: XEVO TQ-S LC/MS instrument produced by Waters. All measurement data is collected and processed by Masslynx V4.1 software, and the data is calculated and processed by Microsoft Excel. Using WinNonLin 8.0 software, the statistical moment method was used to calculate the pharmacokinetic parameters. Mainly include kinetic parameters Tmax, T1/2, Cmax, AUClast etc. Column: ACQUITY UPLC BEH C18 (2.1 mm×50 mm, 1.7 μm); column temperature 40° C.; mobile phase A is water (0.1% formic acid), mobile phase B is acetonitrile, flow rate is 0.350 ml/min, gradient elution is adopted, the elution gradient is 0.50 min: 10% B; 1.50 min: 10% B; 2.30 min: 95% B; 2.31 min: 10% B; 3.00 min: stop. Injection volume: 5 μL.
(§6) Animals: 3 male SD rats with a weight range of 200-220 g. After purchase, they will be kept in the laboratory of the Experimental Animal Center for 2 days and then used. They will be fasted for 12 hours predose and 4 hours after dosing. Drinking water is free during the test. After the rats were gavage, blood samples were taken according to the established time point.
(§7) Solvent: 0.5% Methylcellulose (aqueous solution containing 0.4% Tween 80 and 1% ethanol). Preparation of the solution for intragastrical administration: accurately weigh the compound, add it to the solvent, and use ultrasound at room temperature for 5 minutes to completely dissolve the drug, and prepare a 0.3 mg/ml medicinal solution.
(§8) A single administration was also used to study the pharmacokinetics of the drug sample in rats.
(§9) After intragastrical administration, blood was taken from the orbit at 0.25, 0.5, 1, 2, 4, 9, 12 and 24 hours, and placed in a plastic centrifuge tube pretreated with sodium heparin. After centrifugation, the supernatant plasma was used for LC-MS/MS analysis.
(§10) Accurately weigh the compounds to prepare different concentrations, perform quantitative analysis on mass spectrometry to establish a standard curve, and then test the concentration of the above-mentioned compound in the plasma to obtain the compound concentration at different time points. All measurement data are collected and processed by relevant software, and the statistical moment method is used to calculate the pharmacokinetic parameters (mainly including kinetic parameters Tmax, T1/2, Cmax, AUClast etc).

[5] = Pharmacokinetic study in rats (intragastrical administration, plasma LC-MS/MS); conditions: male, SD, rat, po, 3 mg/kg
Experimental: as §5, §6, §7, §8, §9, §10

[6] = molecular target: CDK6/cycD3 (Homo sapiens, UniProt Q00534); test: CDK6 kinase activity inhibition assay (caliper mobility shift); assay type: biochemical; conditions: CDK6/cycD3 15 nM, ATP 800 μM; read-out: CDK6 kinase inhibitory activity (IC50)
Chain of CDK6/cycD3 (Q00534 whole entry): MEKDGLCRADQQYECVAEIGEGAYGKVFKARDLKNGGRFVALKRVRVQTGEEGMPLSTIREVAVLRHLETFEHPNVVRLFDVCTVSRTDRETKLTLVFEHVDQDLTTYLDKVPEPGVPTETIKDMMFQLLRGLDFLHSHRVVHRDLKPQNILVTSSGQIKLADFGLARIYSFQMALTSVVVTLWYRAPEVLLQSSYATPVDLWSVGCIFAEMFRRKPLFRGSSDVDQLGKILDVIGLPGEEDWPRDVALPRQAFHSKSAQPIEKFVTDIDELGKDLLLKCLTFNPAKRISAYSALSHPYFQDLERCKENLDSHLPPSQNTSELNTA
Chain of CDK6/cycD3 (P30281 whole entry partner): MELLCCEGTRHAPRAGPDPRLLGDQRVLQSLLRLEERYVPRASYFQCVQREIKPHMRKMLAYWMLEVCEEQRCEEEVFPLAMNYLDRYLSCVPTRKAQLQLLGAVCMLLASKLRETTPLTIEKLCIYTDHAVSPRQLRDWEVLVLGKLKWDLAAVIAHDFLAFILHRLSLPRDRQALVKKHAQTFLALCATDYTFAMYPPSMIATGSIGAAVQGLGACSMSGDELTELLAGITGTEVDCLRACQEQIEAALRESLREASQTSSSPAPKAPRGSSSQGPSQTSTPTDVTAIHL
Experimental: as §1, §2

[7] = molecular target: CDK5/p35NCK (Homo sapiens, UniProt Q00535); test: CDK5 kinase activity inhibition assay (ADP-Glo); assay type: biochemical; conditions: read-out: CDK5 kinase inhibitory activity (IC50)
Chain of CDK5/p35NCK (Q00535 whole entry): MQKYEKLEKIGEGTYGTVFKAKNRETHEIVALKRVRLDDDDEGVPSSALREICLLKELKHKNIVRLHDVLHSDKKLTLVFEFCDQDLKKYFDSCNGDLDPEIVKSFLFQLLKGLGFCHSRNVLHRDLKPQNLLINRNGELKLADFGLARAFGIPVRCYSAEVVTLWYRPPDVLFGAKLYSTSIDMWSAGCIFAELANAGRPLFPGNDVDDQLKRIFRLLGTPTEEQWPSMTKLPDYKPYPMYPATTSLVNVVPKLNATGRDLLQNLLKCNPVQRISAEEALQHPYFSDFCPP
Chain of CDK5/p35NCK (Q15078 whole entry partner): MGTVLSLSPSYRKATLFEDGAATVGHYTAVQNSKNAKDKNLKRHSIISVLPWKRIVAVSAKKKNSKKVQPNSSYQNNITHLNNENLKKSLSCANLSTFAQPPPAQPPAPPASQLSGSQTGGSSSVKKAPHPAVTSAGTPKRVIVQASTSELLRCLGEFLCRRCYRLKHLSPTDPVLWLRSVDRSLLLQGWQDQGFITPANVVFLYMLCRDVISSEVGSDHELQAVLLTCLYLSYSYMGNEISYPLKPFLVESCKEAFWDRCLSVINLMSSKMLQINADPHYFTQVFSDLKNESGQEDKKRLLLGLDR
Experimental: as §3, §4

[8] = molecular target: CDK2/CycA2 (Homo sapiens, UniProt P24941); test: CDK2 kinase activity inhibition assay (caliper mobility shift); assay type: biochemical; conditions: CDK2/CycA2 12 nM, ATP 39 μM; read-out: CDK2 kinase inhibitory activity (IC50)
Experimental: as §1, §2

[9] = molecular target: CDK9/CycT1 (Homo sapiens, UniProt P50750); test: CDK9 kinase activity inhibition assay (ADP-Glo); assay type: biochemical; conditions: read-out: CDK9 kinase inhibitory activity (IC50)
Chain of CDK9/CycT1 (P50750 whole entry): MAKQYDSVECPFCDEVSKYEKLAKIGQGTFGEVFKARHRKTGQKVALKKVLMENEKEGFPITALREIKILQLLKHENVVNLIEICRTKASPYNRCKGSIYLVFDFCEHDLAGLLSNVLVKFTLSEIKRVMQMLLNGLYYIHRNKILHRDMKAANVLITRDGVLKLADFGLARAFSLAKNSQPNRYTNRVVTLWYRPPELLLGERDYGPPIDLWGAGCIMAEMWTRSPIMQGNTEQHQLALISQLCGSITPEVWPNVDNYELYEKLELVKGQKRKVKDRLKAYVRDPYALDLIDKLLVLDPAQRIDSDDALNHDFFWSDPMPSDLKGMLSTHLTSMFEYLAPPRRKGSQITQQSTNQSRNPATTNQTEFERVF
Chain of CDK9/CycT1 (O60563 whole entry partner): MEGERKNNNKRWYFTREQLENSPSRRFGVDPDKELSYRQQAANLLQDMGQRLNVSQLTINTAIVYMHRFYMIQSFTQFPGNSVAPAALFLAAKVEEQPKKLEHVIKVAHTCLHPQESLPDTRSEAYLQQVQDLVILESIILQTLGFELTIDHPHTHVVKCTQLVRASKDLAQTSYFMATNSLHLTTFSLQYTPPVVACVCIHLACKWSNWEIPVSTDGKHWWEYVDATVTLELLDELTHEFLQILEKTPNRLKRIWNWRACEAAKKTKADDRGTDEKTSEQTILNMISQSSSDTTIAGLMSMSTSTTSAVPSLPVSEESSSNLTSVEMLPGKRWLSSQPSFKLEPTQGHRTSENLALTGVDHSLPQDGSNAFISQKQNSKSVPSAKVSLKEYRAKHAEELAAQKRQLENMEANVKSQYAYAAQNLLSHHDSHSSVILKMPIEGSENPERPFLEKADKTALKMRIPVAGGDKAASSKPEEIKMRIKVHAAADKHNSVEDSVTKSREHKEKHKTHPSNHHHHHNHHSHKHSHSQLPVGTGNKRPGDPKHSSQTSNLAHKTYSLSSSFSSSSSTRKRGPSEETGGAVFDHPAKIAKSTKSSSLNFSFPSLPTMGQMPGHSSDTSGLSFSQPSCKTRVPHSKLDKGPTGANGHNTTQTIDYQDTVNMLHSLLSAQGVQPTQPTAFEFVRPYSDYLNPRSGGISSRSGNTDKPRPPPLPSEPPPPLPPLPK
Experimental: as §3, §4

[10] = read-out: TRKA kinase inhibitory activity (IC50)

Chain of CDK4/CycD3 (P11802 whole entry): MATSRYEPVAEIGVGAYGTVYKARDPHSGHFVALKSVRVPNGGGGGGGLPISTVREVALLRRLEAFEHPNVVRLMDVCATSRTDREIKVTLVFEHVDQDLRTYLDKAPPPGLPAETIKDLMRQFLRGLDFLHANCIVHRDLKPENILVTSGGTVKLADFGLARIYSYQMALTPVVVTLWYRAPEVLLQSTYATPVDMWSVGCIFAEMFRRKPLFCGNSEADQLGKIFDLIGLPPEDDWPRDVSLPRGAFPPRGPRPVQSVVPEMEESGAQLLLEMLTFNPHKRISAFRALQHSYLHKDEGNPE
Chain of CDK4/CycD3 (P30281 whole entry partner): as the sequence (P30281 whole entry partner) above

| Structure (SMILES) | IC50 [1] [nM] | IC50 [2] [nM] | IC50 [3] [nM] | AUC(0-t) [4] [ng·h/mL] | Cmax [4] [ng/mL] | Tmax [4] [h] | half-life [5] [min] | IC50 [6] [nM] | IC50 [7] [nM] | IC50 [8] [nM] | IC50 [9] [nM] | IC50 [3, 10] [nM] | AUC(0-t) [5] [ng·h/mL] | Cmax [5] [ng/mL] | Tmax [5] [h] |
| --- | --- | --- | --- | --- | --- | --- | --- | --- | --- | --- | --- | --- | --- | --- | --- |
| CC(=O)c1c(C)c2cnc(Nc3ccc4c(c3)OC[C@@H]3CN(C5CCN(C)CC5)CCN43)nc2n(C2CCCC2)c1=O [Compound 2S] | < 10 | < 100 | < 10 | 1910 | 114 | 13.3 | > 720 | < 10 | < 50 | < 100 | < 20 |  |  |  |  |
| CC(=O)c1c(C)c2cnc(Nc3ccc4c(c3)OC[C@H]3CN(C5CCN(C(C)=O)CC5)CCN43)nc2n(C2CCCC2)c1=O [Compound 5R] | < 10 | < 200 |  |  |  |  | 175 | < 20 | < 200 | < 100 | < 50 | < 10 | 4350 | 438 | 6.67 |
| CC(=O)c1c(C)c2cnc(Nc3ccc4c(c3)OC[C@@H]3CN(C5CN(C)C5)CCN43)nc2n(C2CCCC2)c1=O [Compound 7S] | < 10 | < 100 |  |  |  |  | 191 | < 10 | < 100 | < 100 | < 50 | < 10 | 1940 | 133 | 9.33 |
